Experiments:
P388 [1] = assay: Compound was studied in P388 test system for the antitumor activity expressed as number of animals survived/Number of animals tested at a dose of 200 mg/kg; 5/6; type: functional, Mus musculus
P388 [2] = assay: Compound was studied in P388 test system for the antitumor activity expressed as percent maximum life span of animals at a dose of 200 mg/kg; type: functional; settings: Mus musculus
Mus musculus [3] = assay: Compound was studied in CD8F test system for the antitumor activity expressed as number of animals survived/Number of animals tested at dose of 25 mg/kg; 10/10
P388 [4] = assay: Compound was studied in P388 test system for the antitumor activity expressed as number of animals survived/Number of animals tested at dose of 50 mg/kg; 6/6; type: functional, Mus musculus
L1210 [5] = assay: Compound was studied in L1210 leukemia test system for the antitumor activity expressed as percent maximum life span of animals at dose of 200 mg/kg; type: functional; settings: Mus musculus
Mus musculus [6] = assay: Compound was studied in CD8F test system for the antitumor activity expressed as percent maximum life span of animals at dose of 25 mg/kg; type: functional
L1210 [7] = assay: Compound was studied in L1210 leukemia test system for the antitumor activity expressed as number animals survived/Number of animals tested at dose of 200 mg/kg; 10/10; type: functional, Mus musculus
P388 [8] = assay: Compound was studied in P388 test system for the antitumor activity expressed as percent maximum life span of animals at a dose of 100 mg/kg; type: functional; settings: Mus musculus
P388 [9] = assay: Compound was studied in P388 test system for the antitumor activity expressed as number of animals survived/Number of animals tested at a dose of 100 mg/kg; 6/6; type: functional, Mus musculus
P388 [10] = assay: Compound was studied in P388 test system for the antitumor activity expressed as number of animals survived/Number of animals tested at dose of 25 mg/kg; 6/6; type: functional, Mus musculus
P388 [11] = assay: Compound was studied in P388 test system for the antitumor activity expressed as percent maximum life span of animals at dose of 25 mg/kg; type: functional; settings: Mus musculus
L1210 [12] = assay: Compound was studied in L1210 leukemia test system for the antitumor activity expressed as percent maximum life span of animals at dose of 50 mg/kg; type: functional; settings: Mus musculus
L1210 [13] = assay: Compound was studied in L1210 leukemia test system for the antitumor activity expressed as number animals survived/Number of animals tested at dose of 50 mg/kg; 6/6; type: functional, Mus musculus
L1210 [14] = assay: Compound was studied in L1210 leukemia test system for the antitumor activity expressed as number animals survived/Number of animals tested at dose of 200 mg/kg; 6/6; type: functional, Mus musculus
L1210 [15] = assay: Compound was studied in L1210 leukemia test system for the antitumor activity expressed as number of animals survived/Number of animals tested at dose of 25 mg/kg; 5/6; type: functional, Mus musculus
P388 [16] = assay: Compound was studied in P388 test system for the antitumor activity expressed as percent maximum life span of animals at dose of 50 mg/kg; type: functional; settings: Mus musculus
L1210 [17] = assay: Compound was studied in L1210 leukemia test system for the antitumor activity expressed as percent maximum life span of animals at dose of 25 mg/kg; type: functional; settings: Mus musculus
P388 [18] = assay: Compound was studied in P388 test system for the antitumor activity expressed as number of animals survived/Number of animals tested at a dose of 200 mg/kg; 6/6; type: functional, Mus musculus
P388 [19] = assay: Compound was studied in P388 test system for the antitumor activity expressed as percent maximum life span of animals at dose of 37.5 mg/kg; type: functional; settings: Mus musculus
P388 [20] = assay: Compound was studied in P388 test system for the antitumor activity expressed as number of animals survived/Number of animals tested at dose of 37.5 mg/kg; 6/6; type: functional, Mus musculus
L1210 [21] = assay: Compound was studied in L1210 leukemia test system for the antitumor activity expressed as number animals survived/Number of animals tested at dose of 25 mg/kg; 5/6; type: functional, Mus musculus
P388 [22] = assay: Compound was studied in P388 test system for the antitumor activity expressed as percent maximum life span of animals at dose of 120 mg/kg; type: functional; settings: Mus musculus
L1210 [23] = assay: Compound was studied in L1210 leukemia test system for the antitumor activity expressed as percent maximum life span of animals at dose of 22.5 mg/kg; type: functional; settings: Mus musculus
L1210 [24] = assay: Compound was studied in L1210 leukemia test system for the antitumor activity expressed as number of animals survived/Number of animals tested at dose of 22.5 mg/kg; 6/6; type: functional, Mus musculus
P388 [25] = assay: Compound was studied in P388 test system for the antitumor activity expressed as number of animals survived/Number of animals tested at dose of 120 mg/kg; 6/6; type: functional, Mus musculus
P388 [26] = assay: Compound was studied in P388 test system for the antitumor activity expressed as number of animals survived/Number of animals tested at 200 mg/kg; 6/6; type: functional, Mus musculus
B16 [27] = assay: Compound was studied in B16 test system for the antitumor activity expressed as number of animals survived/Number of animals tested at dose of 200 mg/kg; […]; type: functional, Mus musculus
L1210 [28] = assay: Compound was studied in L1210 leukemia test system for the antitumor activity expressed as percent maximum life span of animals at dose of 400 mg/kg; type: functional; settings: Mus musculus
P388 [29] = assay: Compound was studied in P388 test system for the antitumor activity expressed as percent maximum life span of animals; type: functional, Mus musculus
B16 [30] = assay: Compound was studied in B16 test system for the antitumor activity expressed as percent maximum life span of animals at dose of 200 mg/kg; type: functional; settings: Mus musculus
[31] = system: Lewis lung carcinoma cell line; assay: Compound was studied in LL test system for the antitumor activity expressed as percent maximum life span of animals at dose of 12.5 mg/kg; type: functional; settings: Mus musculus
[32] = system: Lewis lung carcinoma cell line; assay: Compound was studied in LL test system for the antitumor activity expressed as number of animals survived/Number of animals tested at dose of 12.5 mg/kg; 10/10; type: functional, Mus musculus
Mus musculus [33] = assay: Compound was studied in CD8F test system for the antitumor activity expressed as percent maximum life span of animals at dose of 250 mg/kg; type: functional
L1210 [34] = assay: Compound was studied in L1210 leukemia test system for the antitumor activity expressed as number animals survived/Number of animals tested at dose of 400 mg/kg; 6/6; type: functional, Mus musculus
Mus musculus [35] = assay: Compound was studied in CD8F test system for the antitumor activity expressed as number of animals survived/Number of animals tested at dose of 250 mg/kg; 10/10; type: functional
P388 [36] = assay: Compound was studied in P388 test system for the antitumor activity expressed as percent maximum life span of animals at a dose of 50 mg/kg; type: functional; settings: Mus musculus
P388 [37] = assay: Compound was studied in P388 test system for the antitumor activity expressed as number of animals survived/Number of animals tested at a dose of 50 mg/kg; 6/6; type: functional, Mus musculus
P388 [38] = assay: Compound was studied in P388 test system for the antitumor activity expressed as number of animals survived/Number of animals tested at a dose of 100 mg/kg; 5/6; type: functional, Mus musculus
P388 [39] = assay: Compound was studied in P388 test system for the antitumor activity expressed as number of animals survived/Number of animals tested at a dose of 400 mg/kg; 5/5; type: functional, Mus musculus
P388 [40] = assay: Compound was studied in P388 test system for the antitumor activity expressed as percent maximum life span of animals at a dose of 400 mg/kg; type: functional; settings: Mus musculus

Compound `O=S(=O)(OC=C1CCCCC1)C(F)(F)F` has a Ratio (P388 [1]) of 5 and an ILS at 200 mg/kg (P388 [2]) of 12%.

In the case of `C[Si](C)(C)O/C=C1\CCCCC1=O`, the Ratio (Mus musculus [3]) is reported as 1, the Ratio (P388 [4]) is reported as 6 and the ILS at 200 mg/kg (L1210 [5]) is reported as 5%. It also gave an ILS at 25 mg/kg (Mus musculus [6]) of 21% and a Ratio (L1210 [7]) of 10.

Work on `O=S(=O)(OC(=C(c1ccccc1)c1ccccc1)c1ccccc1)C(F)(F)F` yielded an ILS at 100 mg/kg (P388 [8]) of 16% and a Ratio (P388 [9]) of 6.

In the case of `CC1(C)CC(=O)C=C(OS(=O)(=O)C(F)(F)F)C1`, the Ratio (P388 [10]) is reported as 6, the ILS at 25 mg/kg (P388 [11]) is reported as 12% and the ILS at 50 mg/kg (L1210 [12]) is reported as 3%. The Ratio (L1210 [13]) was 6.

`O=S(=O)(O/C1=C/CCCCCC1)C(F)(F)F` gave an ILS at 100 mg/kg (P388 [8]) of 13%, a Ratio (P388 [9]) of 6 and a Ratio (P388 [1]) of 5. The ILS at 200 mg/kg (P388 [2]) was 14%.

Compound `O=C1O[C@@H]2CCCCC2/C1=C/OS(=O)(=O)C(F)(F)F` (stereo partly specified) has an ILS at 200 mg/kg (L1210 [5]) of 17% and a Ratio (L1210 [14]) of 6.

With `CS(=O)(=O)O/C=C1\CCOC1=O` the Ratio (P388 [4]) was 6, the Ratio (L1210 [15]) was 5 and the ILS at 50 mg/kg (P388 [16]) was 32%. For the same compound, the ILS at 25 mg/kg (L1210 [17]) was 6%.

In the case of `CC(C)=CO[Si](C)(C)C`, the ILS at 200 mg/kg (P388 [2]) is reported as 14% and the Ratio (P388 [18]) is reported as 6.

Work on `O=C1OCC/C1=C\OS(=O)(=O)C(F)(F)F` yielded an ILS at 37.5 mg/kg (P388 [19]) of 26%, a Ratio (P388 [20]) of 6 and an ILS at 25 mg/kg (L1210 [17]) of 6%. The Ratio (L1210 [21]) was 5.

For `CS(=O)(=O)O/C=C1\C(=O)O[C@@H]2CCCCC12` (stereo partly specified), the ILS at 120 mg/kg (P388 [22]) was 25%, the ILS at 22.5 mg/kg (L1210 [23]) was 11% and the Ratio (L1210 [24]) was 6. It also gave a Ratio (P388 [25]) of 6.

In the case of `C[Si](C)(C)OC=C1CCCCC1`, the ILS at 100 mg/kg (P388 [8]) is reported as 22% and the Ratio (P388 [9]) is reported as 6.

`C[Si](C)(C)O/C=C1\CCOC1=O` was tested, and the Ratio (P388 [26]) was 6, the Ratio (B16 [27]) was 10 and the ILS at 400 mg/kg (L1210 [28]) was 12%. It also gave an ILS (P388 [29]) of 25%, an ILS at 200 mg/kg (B16 [30]) of 6% and an ILS at 12.5 mg/kg [31] of 16%. For the same compound, the Ratio [32] was 10, the ILS at 250 mg/kg (Mus musculus [33]) was 42% and the Ratio (L1210 [34]) was 6. For the same compound, the Ratio (Mus musculus [35]) was 10.

`O=S(=O)(OC1=CCCCC1)C(F)(F)F` gave an ILS at 50 mg/kg (P388 [36]) of 14% and a Ratio (P388 [37]) of 6.

`CC(C)=C(C)OS(=O)(=O)C(F)(F)F` gave an ILS at 100 mg/kg (P388 [8]) of 14% and a Ratio (P388 [9]) of 6.

`C/C(=C\O[Si](C)(C)C)c1ccccc1` gave a Ratio (P388 [38]) of 5 and an ILS at 100 mg/kg (P388 [8]) of 8%.

`CCOC1=CC(=O)/C(=C/O[Si](C)(C)C)CC1` showed a Ratio (P388 [4]) of 6.

`O=S(=O)(OC1=CCCCCC1)C(F)(F)F` showed a Ratio (P388 [39]) of 5 and an ILS at 400 mg/kg (P388 [40]) of 15%.

`CC(C)=COS(=O)(=O)C(F)(F)F` gave an ILS at 50 mg/kg (P388 [36]) of -1% and a Ratio (P388 [37]) of 6.

Reference: ChEMBL document CHEMBL1121820, “Synthesis and antitumor activity of simple vinyl and alpha-methylene-gamma-butyrolactone sulfonate esters and silyl enol ethers” (1981)
